SMILES strings stand for the structures.

ROCK2, sequence (O75116 whole entry, looked up): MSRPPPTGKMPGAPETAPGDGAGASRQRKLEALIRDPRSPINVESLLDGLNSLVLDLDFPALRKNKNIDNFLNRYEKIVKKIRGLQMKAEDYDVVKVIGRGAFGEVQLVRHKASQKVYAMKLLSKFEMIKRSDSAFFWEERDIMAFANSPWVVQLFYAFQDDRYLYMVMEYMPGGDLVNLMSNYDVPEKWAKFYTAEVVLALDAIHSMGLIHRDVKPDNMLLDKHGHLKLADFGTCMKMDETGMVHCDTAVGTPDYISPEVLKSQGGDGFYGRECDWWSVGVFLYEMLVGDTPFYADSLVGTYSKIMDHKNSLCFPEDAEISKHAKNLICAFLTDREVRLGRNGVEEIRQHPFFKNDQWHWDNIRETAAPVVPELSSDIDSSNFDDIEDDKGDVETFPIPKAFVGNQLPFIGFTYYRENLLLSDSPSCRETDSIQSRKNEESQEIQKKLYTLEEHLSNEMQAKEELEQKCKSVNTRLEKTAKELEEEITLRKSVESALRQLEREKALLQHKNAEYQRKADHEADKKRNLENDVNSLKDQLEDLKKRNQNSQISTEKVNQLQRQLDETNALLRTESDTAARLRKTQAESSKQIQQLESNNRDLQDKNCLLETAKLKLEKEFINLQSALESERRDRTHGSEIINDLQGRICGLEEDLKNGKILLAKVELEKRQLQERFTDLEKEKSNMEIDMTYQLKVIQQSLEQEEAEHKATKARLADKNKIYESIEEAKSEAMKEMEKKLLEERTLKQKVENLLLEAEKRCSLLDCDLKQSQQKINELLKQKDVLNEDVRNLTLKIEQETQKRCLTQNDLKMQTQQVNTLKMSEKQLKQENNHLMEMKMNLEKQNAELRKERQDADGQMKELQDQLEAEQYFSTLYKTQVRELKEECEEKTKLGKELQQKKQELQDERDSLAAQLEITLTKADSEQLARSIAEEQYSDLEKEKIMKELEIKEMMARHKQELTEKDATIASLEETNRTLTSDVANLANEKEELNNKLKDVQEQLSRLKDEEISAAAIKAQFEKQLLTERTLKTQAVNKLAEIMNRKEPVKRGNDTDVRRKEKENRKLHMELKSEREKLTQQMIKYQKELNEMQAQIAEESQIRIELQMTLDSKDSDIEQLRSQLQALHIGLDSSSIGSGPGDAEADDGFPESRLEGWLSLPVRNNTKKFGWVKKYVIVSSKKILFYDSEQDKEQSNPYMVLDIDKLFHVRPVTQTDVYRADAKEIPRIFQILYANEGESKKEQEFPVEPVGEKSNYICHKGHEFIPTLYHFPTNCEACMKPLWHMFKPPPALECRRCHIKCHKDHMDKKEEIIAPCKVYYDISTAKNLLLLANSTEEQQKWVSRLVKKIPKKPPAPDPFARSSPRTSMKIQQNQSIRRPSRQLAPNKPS
MAPK14, sequence (Q16539 whole entry, looked up): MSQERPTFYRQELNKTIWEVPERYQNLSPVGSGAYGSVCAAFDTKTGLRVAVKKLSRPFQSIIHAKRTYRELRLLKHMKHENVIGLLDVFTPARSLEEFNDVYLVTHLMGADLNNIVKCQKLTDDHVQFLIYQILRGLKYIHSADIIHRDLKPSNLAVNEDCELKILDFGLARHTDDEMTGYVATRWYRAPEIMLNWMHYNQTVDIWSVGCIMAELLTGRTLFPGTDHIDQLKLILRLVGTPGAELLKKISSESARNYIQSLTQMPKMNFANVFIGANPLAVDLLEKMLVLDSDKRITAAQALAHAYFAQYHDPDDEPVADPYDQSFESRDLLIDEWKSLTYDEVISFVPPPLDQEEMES

In the first assay the target is EGFR (UniProt P00533).
EGFR, sequence (P00533 whole entry, looked up): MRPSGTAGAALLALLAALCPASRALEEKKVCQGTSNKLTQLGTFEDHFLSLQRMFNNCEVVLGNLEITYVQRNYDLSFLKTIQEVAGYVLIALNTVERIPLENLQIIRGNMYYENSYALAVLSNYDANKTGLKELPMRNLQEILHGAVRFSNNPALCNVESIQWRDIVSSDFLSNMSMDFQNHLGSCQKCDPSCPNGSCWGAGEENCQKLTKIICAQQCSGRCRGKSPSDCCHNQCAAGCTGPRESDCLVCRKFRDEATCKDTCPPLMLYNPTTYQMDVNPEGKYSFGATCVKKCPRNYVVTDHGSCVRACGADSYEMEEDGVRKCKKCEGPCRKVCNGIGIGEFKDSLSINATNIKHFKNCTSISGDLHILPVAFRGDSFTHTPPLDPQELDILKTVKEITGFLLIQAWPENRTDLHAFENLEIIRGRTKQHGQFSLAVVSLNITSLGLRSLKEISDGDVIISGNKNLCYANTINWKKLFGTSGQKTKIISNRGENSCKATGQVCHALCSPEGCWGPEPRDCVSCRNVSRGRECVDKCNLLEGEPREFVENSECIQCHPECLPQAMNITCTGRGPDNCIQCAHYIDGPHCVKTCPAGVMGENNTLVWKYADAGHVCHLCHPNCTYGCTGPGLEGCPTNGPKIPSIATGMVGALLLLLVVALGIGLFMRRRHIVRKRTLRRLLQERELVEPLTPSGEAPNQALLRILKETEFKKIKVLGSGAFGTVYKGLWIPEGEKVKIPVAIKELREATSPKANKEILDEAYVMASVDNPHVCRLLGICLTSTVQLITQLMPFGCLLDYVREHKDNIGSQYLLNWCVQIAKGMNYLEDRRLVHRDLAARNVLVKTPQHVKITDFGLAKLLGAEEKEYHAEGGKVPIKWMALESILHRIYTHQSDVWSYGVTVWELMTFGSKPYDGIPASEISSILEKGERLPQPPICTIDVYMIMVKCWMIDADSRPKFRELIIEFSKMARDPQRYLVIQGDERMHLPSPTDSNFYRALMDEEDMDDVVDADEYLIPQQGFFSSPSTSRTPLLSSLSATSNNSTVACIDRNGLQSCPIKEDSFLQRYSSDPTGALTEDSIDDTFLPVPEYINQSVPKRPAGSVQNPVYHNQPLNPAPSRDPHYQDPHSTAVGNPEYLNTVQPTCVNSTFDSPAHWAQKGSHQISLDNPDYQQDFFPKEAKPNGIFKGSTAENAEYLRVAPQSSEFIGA
Assay: not given
In general, IC50 refers to the concentration at which inhibition is half-maximal. A higher IC50 goes with lower potency. In turn, `CC(C)(N)[C@H]1CC[C@H](C(=O)Nc2ccncc2)CC1` gave an IC50 of 100000 nM.

A further assay addresses MAPK14 (UniProt Q16539). Kind of assay: Inhibition of MAPK14 Kinase Activity.
In turn, `Cc1cncc2cccc(S(=O)(=O)N3CCCNC[C@@H]3C)c12` returned an IC50 of 100000 nM.

In turn, `CC(C)(N)[C@H]1CC[C@H](C(=O)Nc2ccncc2)CC1` showed an IC50 above 100000 nM.

The next assay addresses ROCK2 (UniProt O75116). Kind of assay: Inhibition of ROCK2 Kinase Activity.
For `C[C@H]1CN(C(=O)CN)CCCN1S(=O)(=O)c1cccc2cncc(Br)c12`, the IC50 turned out to be 42.9 nM.

On to `Cc1cncc2cccc(S(=O)(=O)N3CCCN(C(=O)CN)CC3)c12`, for which the IC50 stood at 37.6 nM.

On to `CCc1cncc2cccc(S(=O)(=O)N3CCCNC[C@@H]3C)c12`, for which the IC50 came out at 656 nM.

Consider `Cc1cncc2cccc(S(=O)(=O)N3CCNCC(C)C3)c12` (stereo unspecified), for which the IC50 was 107 nM.

As for `Cc1cncc2cccc(S(=O)(=O)N3CCNC(C)CC3)c12` (stereo unspecified), the IC50 turned out to be 123 nM.

`C[C@H]1CNCCCN1S(=O)(=O)c1cccc2cncc(Br)c12` returned a half-inhibitory concentration (IC50) of 5.83 nM.

As to `C[C@H]1CNCCCN1S(=O)(=O)c1cccc2cncc(C#N)c12`, the IC50 stood at 426 nM.

`C[C@H]1CNCCCN1S(=O)(=O)c1cccc2cncc(Cl)c12`: the IC50 was 12.2 nM.

Molecule `Cc1cncc2cccc(S(=O)(=O)N3CCCNCC3)c12` yielded an IC50 of 96.8 nM.

`Cc1cncc2cccc(S(=O)(=O)N3CCCN(C(=O)CN)C[C@@H]3C)c12` returned an IC50 of 11.8 nM.

`Cc1cncc2cccc(S(=O)(=O)N3CCCNC(C)C3)c12` (stereo unspecified): the IC50 came out at 80.6 nM.

For `Cc1cncc2cccc(S(=O)(=O)N3CCCNC[C@@H]3C(C)C)c12`, the IC50 was found to be 804 nM.

Consider `CC(C)(N)[C@H]1CC[C@H](C(=O)Nc2ccncc2)CC1`, for which the IC50 was 162 nM.

In the case of `C[C@H]1CNCCCN1S(=O)(=O)c1cccc2cncc(O)c12`, the IC50 stood at 2750 nM.

`NCC(=O)N1CCCN(S(=O)(=O)c2cccc3cnccc23)CC1`: the IC50 turned out to be 527 nM.

Take `C#Cc1cncc2cccc(S(=O)(=O)N3CCCNC[C@@H]3C)c12`: the IC50 is 6 nM.

For `CC[C@H]1CNCCCN1S(=O)(=O)c1cccc2cncc(C)c12`, the IC50 is 113 nM.

`C#Cc1cncc2cccc(S(=O)(=O)N3CCCN(C(=O)CN)C[C@@H]3C)c12` returned an IC50 of 42.9 nM.

For the origin of these results see the Kinase Knowledgebase extract (Sharma et al. 2016).
